Experimental data published in patent publication US20230227445A1, “BENZAMIDE COMPOUND AND USE THEREOF” (HUMANWELL HEALTHCARE (GROUP) CO., LTD., priority 2020, published 2023).
pIC50: −log10 of the molar value. Structures can show the parent of a compound that is named as a salt.

Assays:
hP2X3 receptor = biological target: T1, hP2X3 receptor (Homo sapiens, UniProt P56373); experiment: Antagonistic activity against hP2X3 receptor by FLIPR calcium flow assay; assay type: cell-based; details: for pIC50: human cells stably transfected with hP2X3, agonist α,β-meATP 400 nM; for antagonistic activity against hP2X3 receptor compared with Reference compound 1 (in words): vs Reference compound 1
T1 construct: expressed in transfected cells
T1 sequence (P56373 1-397): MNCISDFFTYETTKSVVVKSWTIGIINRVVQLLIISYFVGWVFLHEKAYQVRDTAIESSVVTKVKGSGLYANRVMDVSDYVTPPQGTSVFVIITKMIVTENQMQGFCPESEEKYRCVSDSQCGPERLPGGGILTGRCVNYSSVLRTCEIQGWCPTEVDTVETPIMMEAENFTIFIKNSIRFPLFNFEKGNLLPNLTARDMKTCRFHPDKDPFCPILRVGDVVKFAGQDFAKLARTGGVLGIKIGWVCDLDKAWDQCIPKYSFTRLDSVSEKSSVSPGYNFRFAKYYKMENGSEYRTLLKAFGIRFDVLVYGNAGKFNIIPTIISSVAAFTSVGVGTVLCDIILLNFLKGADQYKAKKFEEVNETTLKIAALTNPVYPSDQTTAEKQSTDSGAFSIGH
Method: The antagonistic activity of hP2X3 antagonists against hP2X3 receptor was evaluated by means of FLIPR Calcium 4 Assay Kit (Molecular Devices, R8141) and FLIPR TETRA instrument (Molecular Devices, 0296) by detecting calcium flow signals. 24h before the experiment, human cells, which had been stably transfected with hP2X3 receptors, were plated on a 384-well plate at 2×10^5 cells/mL, with 50 μL of cell suspension per well, and the plate was cultured in an incubator (37° C., 5% CO2) for 16 h to 24 h. The test compound solution (20 to 50 mM DMSO stock solution) with a concentration of 180 times the required concentration was prepared using DMSO. The stock solution was added to the 384-well plate at 500 nL per well, supplemented with 30 μL of FLIPR Assay buffer (1×HBSS+2 mM CaCl2 20 mM HEPES containing 1.26 mM Ca^2+). The 384-well plate was shaken for 20 to 40 min to mix evenly. An agonist (α, β-meATP) with a concentration of 3 times the required concentration (required final concentration was 400 nM) was prepared with FLIPR Assay buffer, and was added to another 384-well plate at 45 μL per well. The culture plate, on which the cells were plated one day ago, was taken, the cell supernatant was sucked and discarded, each well was added with 30 μL of Dye (FLIPR® Calcium 4 Assay Kit, diluted with FLIPR buffer), and then the plate was incubated for 1h. 15 μL of compound was added to each well of cells (using FLIPR sample injector). After 15 minutes, 22.5 μL of the agonist was added to each well, and the fluorescence signal (exciting light wavelength ranging from 470 nm to 495 nm, and emission wavelength ranging from 515 nm to 575 nm) was detect. […] An inhibition effect curve of the compound was fitted on the software GraphpadPrism6, and the IC50 value was calculated.

[1] = Pharmacokinetic assay in mouse; assay type: in vivo, ICR mice
Method: For a mouse pharmacokinetic assay, male ICR mice (20 g to 25 g) were selected and fasted overnight. Three mice were intragastrically administered with 10 mg/kg of the corresponding compound. The blood of the mice was collected before the administration and at 15 min, 30 min, 1 h, 2 h, 4 h, 8 h, and 24 h after the administration. The blood samples were centrifuged at 4° C. for 6 minutes at 6,800 g, plasma was collected and stored at −80° C.
The supernatant was mixed with 3 times the amount of water, and an appropriate amount of the mixed solution was taken for LC-MS/MS analysis. The primary pharmacokinetic parameters were analyzed by WinNonlin 7.0 software non-atrioventricular model.

rat taste = experiment: Taste test in rat (water vs 0.3 mM aqueous quinine solution intake); assay type: in vivo, SD rats; details: SD rats, 30 mg/kg i.p, 0.3 mM quinine, 15 min supply half an hour after administration
Method: SD rats were administered with the corresponding compound after 3 days of overnight water prohibition training. Each rat was supplied with 1 bottle of water and 1 bottle of 0.3 mM aqueous quinine solution half an hour after the administration. After 15 min of water supply, the bottles were removed. The intake amount of water and the intake amount of the 0.3 mM aqueous quinine solution were measured, respectively. The taste influence of the compound on SD rats was evaluated based on the difference between the intake amount of water and the intake amount of the aqueous quinine solution.

[2] = tested on: histamine/citric acid-stimulated cough in guinea pig; experiment: Efficacy test for histamine/citric acid-stimulated cough in guinea pig; assay type: in vivo; details: guinea pigs, nasal drops, 0.17 mg/kg to 1.5 mg/kg, histamine/citric acid stimulation
Method: Guinea pigs were adaptively fed for 3 days to 7 days before being grouped. When the body weight of the guinea pigs reached 300 g to 400 g, they were numbered and randomly grouped.
Compounds or an excipient were administered to guinea pigs by nasal drops 0.25 hour to 24 hours before the start of the cough assessment. The administration dose of the test sample ranged from 0.17 mg/kg to 1.5 mg/kg. For the cough assessment, the guinea pigs were placed in a whole-body volume scan box for adaptation, and then, they were provided with histamine nebulization and then citric acid nebulization. […]
The experimental data was statistically analyzed by one-way ANOVA to analyze and compare data of the various groups. The statistical analysis result p<0.05 was regarded as a significant difference. The t-test was employed for difference comparison between any two.

[3] = mouse, plasma, po, male ICR mice, intragastric administration, 10 mg/kg

[2H]C([2H])([2H])N1CCO[C@@H](COc2cc(C(=O)N[C@H](C)c3cnc(C(F)(F)F)nc3)c(F)c(-c3ncc(C)s3)c2)C1 [Compound I-20, 2-fluoro-5-(((R)-4-(methyl-d3)morpholin-2-yl)methoxy)-3-(5-methylthiazol-2-yl)-N—((R)-1-(2-(trifluoromethyl)pyrimidin-5-yl)ethyl)benzamide]
pIC50 (hP2X3 receptor): 6.43

Cc1cnc(-c2cc(OC(C)C(C)O)cc(C(=O)N[C@H](C)c3cnc(C(F)(F)F)nc3)c2F)s1 (single isomer, unassigned) [Compound I-4]
pIC50 (hP2X3 receptor): 7.20 | antagonistic activity against hP2X3 receptor compared with Reference compound 1 (in words) (hP2X3 receptor): better antagonistic activity

Cc1cnc(-c2cc(OC[C@H]3CNCCO3)cc(C(=O)N[C@H](C)c3cnc(C(F)(F)F)nc3)c2F)s1 [Compound I-18, 2-fluoro-3-(5-methylthiazol-2-yl)-5-(((R)-morpholin-2-yl)methoxy)-N—((R)-1-(2-(trifluoromethyl)pyrimidin-5-yl)ethyl)benzamide hydrochloride]
pIC50 (hP2X3 receptor): 6.35

CC(O)C(C)Oc1cc(C(=O)N[C@H](C)c2cnc(C(F)(F)F)nc2)c(F)c(-c2ncc(Cl)s2)c1 (stereo partly drawn) [Compound I-7, 3-(5-chlorothiazol-2-yl)-2-fluoro-5-((cis-3-hydroxybutan-2-yl)oxy)-N—((R)-1-(2-(trifluoromethyl)pyrimidin-5-yl)ethyl)benzamide]
pIC50 (hP2X3 receptor): 6.57

Cc1cnc(-c2cc(OC[C@H]3CN(C)CCO3)cc(C(=O)N[C@H](C)c3cnc(C(F)(F)F)nc3)c2F)s1 [Compound I-19, 2-fluoro-5-(((R)-4-methylmorpholin-2-yl)methoxy)-3-(5-methylthiazol-2-yl)-N—((R)-1-(2-(trifluoromethyl)pyrimidin-5-yl)ethyl)benzamide]
pIC50 (hP2X3 receptor): 6.51

Cc1cnc(-c2cc(OC3COC3)cc(C(=O)N[C@H](C)c3cnc(C(F)(F)F)nc3)c2F)s1 [Compound I-14, (R)-2-fluoro-3-(5-methylthiazol-2-yl)-5-(oxetane-3-yloxy)-N-(1-(2-(trifluoromethyl)pyrimidin-5-yl)ethyl)benzamide]
pIC50 (hP2X3 receptor): 7.00 | antagonistic activity against hP2X3 receptor compared with Reference compound 1 (in words) (hP2X3 receptor): better antagonistic activity

Cc1cnc(-c2cc(O[C@@H](C)[C@H](C)O)cc(C(=O)N[C@H](C)c3cnc(C(F)(F)F)nc3)c2F)s1 [Compound I-28, 2-fluoro-5-(((2S, 3S)-3-hydroxybutan-2-yl)oxy)-3-(5-methylthiazol-2-yl)-N—((R)-1-(2-(trifluoromethyl)pyrimidin-5-yl)ethyl)benzamide]
pIC50 (hP2X3 receptor): 7.20 | antagonistic activity against hP2X3 receptor compared with Reference compound 1 (in words) (hP2X3 receptor): better antagonistic activity | pharmacokinetic properties in mouse compared with Reference compound 1 and Reference compound 2 (in words) ([1]; mouse assay, vs Reference compounds 1 and 2): significantly improved pharmacokinetic properties | AUC(0-t) [1, 3]: 8760 ng·h/mL | Cmax [1, 3]: 2400 ng/mL | Tmax [1, 3]: 0.5 h | half-life ([1]; mouse, plasma, po, male ICR mice, intragastric administration, 10 mg/kg, read-out: T½ (converted)): 2.65 h | Water/aqueous quinine solution (ratio of water intake to aqueous quinine solution intake) (rat taste): 15.4 | Average cough times within 15 min [2]: 9.1 | Cough inhibition rate vs. solvent [2]: 65.8%

Cc1cnc(-c2cc(OC(C)C(C)O)cc(C(=O)N[C@H](C)c3cnc(C(F)(F)F)nc3)c2F)s1 (single isomer, unassigned) [Compound I-5]
pIC50 (hP2X3 receptor): 7.30 | antagonistic activity against hP2X3 receptor compared with Reference compound 1 (in words) (hP2X3 receptor): better antagonistic activity

Cc1cnc(-c2cc(C(=O)N[C@H](C)c3cnc(C(F)(F)F)nc3)cc(O[C@@H]3CCOC3)c2F)s1 [Compound I-3, 4-fluoro-3-(5-methylthiazol-2-yl)-5-(((R)-tetrahydrofuran-3-yl)oxy)-N—((R)-1-(2-(trifluoromethyl)pyrimidin-5-yl)ethyl)benzamide]
pIC50 (hP2X3 receptor): 6.77

Cc1cnc(-c2cc(OC[C@@H]3COCCN3C)cc(C(=O)N[C@H](C)c3cnc(C(F)(F)F)nc3)c2F)s1 [Compound I-9, 2-fluoro-5-(((S)-4-methylmorpholin-3-yl)methoxy)-3-(5-methylthiazol-2-yl)-N—((R)-1-(2-(trifluoromethyl)pyrimidin-5-yl)ethyl)benzamide]
pIC50 (hP2X3 receptor): 6.52

Cc1cnc(-c2cc(O[C@@H]3CCOC3)c(F)c(C(=O)N[C@H](C)c3cnc(C(F)(F)F)nc3)c2)s1 [Compound I-2, 2-fluoro-5-(5-methylthiazol-2-yl)-3-(((R)-tetrahydrofuran-3-yl)oxy)-N—((R)-1-(2-(trifluoromethyl)pyrimidin-5-yl)ethyl)benzamide]
pIC50 (hP2X3 receptor): 6.53

Cc1cnc(-c2cc(OCC3CC3)cc(C(=O)N[C@H](C)c3cnc(C(F)(F)F)nc3)c2F)s1 [Compound I-15, (R)-5-(cyclopropylmethoxy)-2-fluoro-3-(5-methylthiazol-2-yl)-N-(1-(2-(trifluoromethyl)pyrimidin-5-yl)ethyl)benzamide]
pIC50 (hP2X3 receptor): 5.87

Cc1cnc(-c2cc(OC3CCNCC3)cc(C(=O)N[C@H](C)c3cnc(C(F)(F)F)nc3)c2F)s1 [Compound I-17, (R)-2-fluoro-5-((1-piperidin-4-yl)oxy)-3-(5-methylthiazol-2-yl)-N-(1-(2-(trifluoromethyl)pyrimidin-5-yl)ethyl)benzamide]
pIC50 (hP2X3 receptor): 6.41

Cc1cnc(-c2cc(OC3CCN(C)CC3)cc(C(=O)N[C@H](C)c3cnc(C(F)(F)F)nc3)c2F)s1 [Compound I-16, (R)-2-fluoro-5-((1-methylpiperidin-4-yl)oxy)-3-(5-methylthiazol-2-yl)-N-(1-(2-(trifluoromethyl)pyrimidin-5-yl)ethyl)benzamide]
pIC50 (hP2X3 receptor): 6.36
